Source: EP0923292B1, “IMPROVED METHOD FOR SYSTEMIC ADMINISTRATION OF 2,4-DIENOIC ACID-TYPE INSECTICIDES TO TERRESTRIAL MAMMALS” (priority 1996, dated 1998)

Assays:
C. felis = experiment: Systemic flea ovicidal activity upon oral administration to host dogs (Example 2); assay type: in vivo, C. felis (host: dogs); conditions: for Percent Inhibition of Flea Egg Hatching: relative to placebo
Description: Nine random-bred, clinically healthy dogs, five male and four female, ranging in weight from 7.5 to 14.9 kg and in age from 7 months to 68 months, and having hair coats ranging from fine to coarse and from 1.0 to 2.5 cm in length, were used. The dogs were assigned to three treatment groups based on weight, one group designated to receive a placebo (gelatin capsules containing no (S)-methoprene), the second group to receive gelatin capsules individually prepared to contain the appropriate quantity of (S)-methoprene such that one capsule would provide 25.0 mg (S)-methoprene per kg of the body weight of a particular dog, and the third group to receive gelatin capsules individually prepared to provide 50.0 mg/kg of body weight per dog. […]
Eleven days before the administration of the first gelatin capsule (i.e., on Day -11), and weekly thereafter through Day 59, each dog was infested with approximately 200 one-to two-week-old, unfed adult C. fells fleas of mixed sex ratio. Each dog was restrained for about one minute while the fleas were released along the dorsum.
[…] Prior to egg collection, the cages in which the dogs were housed and the collection trays were rinsed with isopropyl alcohol, and the water was turned off, feed bowls and resting pads were removed from each cage. Trays covered with a screen made of […] hardware cloth were placed under the cages, and heavy white butcher paper was placed under the hardware cloth. After an interval of 14-16 hours, the paper was swept and the debris and flea eggs thus collected were transferred to a metal pan. The debris was separated from the eggs by sieving, and the eggs were placed in half-pint plastic cartons, then transferred to 10 cm x 10 cm glass plates. Using a dissecting microscope and a fine tipped artist brush, 100 flea eggs were counted from the sweepings of each dog and separated into four replicates of 25 eggs each. The eggs were placed in a 15 mm x 60 mm disposable plastic petri dish and incubated at 79-80°F and 80% relative humidity. Seventy two hours after collection, larvae emergence was determined. Both dead and live larvae were counted to determine the ovicidal effect of the treatment.
The results are listed in Table II below, where each entry represents the percent inhibition of hatching of fleas from the flea eggs relative to the placebo group, and each entry is the average of all replicates and of all three dogs in the particular treatment group.

adult cat fleas C. felis = experiment: Flea ovicidal activity in vitro: artificial feeding system with blood drawn from treated dogs (Example 3); conditions: fed to fleas
Description: For the in vitro tests, an artificial feeding system with cages for adult cat fleas C. felis was used as described by Wade, S.E., et al., J. Med. Ent. 25(3): 186-190 (May 1988). Inside each cage were placed 100 one-week-old, unfed adult C. fells. Each cage included a container for treated blood separated from the fleas by a PARAFILM® membrane, and a compartment containing thin strips of paper to support loosely arranged clean dog hair and to provide a foothold for the fleas as they fed on the blood through the membrane.
Fifteen healthy male beagle dogs, one year of age, with weights ranging from 10.29 kg to 13.87 kg, were divided into three groups of five dogs each. One group was fed an initial bolus of 50 mg/kg of (S)-methoprene, followed by daily feeding a standard maintenance diet containing 0.02% (S)-methoprene. The second group was fed an initial bolus of 25 mg/kg of (S)-methoprene, followed by daily feeding a standard maintenance diet containing 0.01% (S)-methoprene. The third group received the same diet but with no (S)-methoprene, thereby serving as a control. The daily feeding of 0.02% (S)-methoprene in the first group amounted to approximately 3.6 mg/kg, while the daily feeding of 0.01% (S)-methoprene in the second group amounted to approximately 1.8 mg/kg. The (S)-methoprene was administered in a gelatin capsule, the control involved administration of a gelatin capsule containing vegetable oil instead of (S)-methoprene, and the standard diet was a Science Diet Canine Maintenance. The daily feeding of the (S)-methoprene continued for six weeks following the initial bolus.
Seven days after the initial bolus and weekly thereafter for five more weeks except week 4, 50 mL of blood was collected from each dog into a syringe preloaded with 3 mL of a 20% (by weight) aqueous sodium citrate solution. The five 50-mL samples from each treatment group were pooled at each bleeding. Aliquots of 10 mL each from each pool were placed in separate feeding chambers of the artificial flea feeding cages.
Flea eggs were collected from each cage at appropriate intervals. One hundred (100) healthy appearing […] were counted under a dissecting microscope from each cage, divided into two subsamples, and placed in 60 mm x 15 mm plastic petri dishes. The samples were incubated at 78°F and 85% relative humidity for three days, then scored for larval hatch by visual observation through the dissecting microscope. The data from all replicates in each treatment group were combined to yield the mean percent egg hatch, and the percent inhibition of egg hatch was calculated relative to the control.

SMILES: COC(C)(C)CCC[C@H](C)C/C=C/C(C)=C/C(=O)OC(C)C [(S)-Methoprene, 1-isopropyl (E,E)-11-methoxy-3,7,11-trimethyl dodecadi-2,4-enoate]
- duration of ovicidal efficacy (C. felis; administered systemically to host dogs at 50 mg/kg and 25 mg/kg): two weeks or more
- time effective in controlling fleas (C. felis; following a single oral dose of 50 mg/kg to dogs): 14 days
- Percent Inhibition of Flea Egg Hatching (C. felis; oral 25 mg/kg once on Day 0 and once on Day 33, 1 day after initial administration): 92.3%
- Percent Inhibition of Flea Egg Hatching (C. felis; oral 25 mg/kg once on Day 0 and once on Day 33, 2 days after initial administration): 80.4%
- Percent Inhibition of Flea Egg Hatching (C. felis; oral 25 mg/kg once on Day 0 and once on Day 33, 4 days after initial administration): 100.0%
- Percent Inhibition of Flea Egg Hatching (C. felis; oral 25 mg/kg once on Day 0 and once on Day 33, 7 days after initial administration): 44.4%
- Percent Inhibition of Flea Egg Hatching (C. felis; oral 25 mg/kg once on Day 0 and once on Day 33, 14 days after initial administration): 75.1%
- Percent Inhibition of Flea Egg Hatching (C. felis; oral 25 mg/kg once on Day 0 and once on Day 33, 21 days after initial administration): 79.0%
- Percent Inhibition of Flea Egg Hatching (C. felis; oral 25 mg/kg once on Day 0 and once on Day 33, 28 days after initial administration): 39.9%
- Percent Inhibition of Flea Egg Hatching (C. felis; oral 25 mg/kg once on Day 0 and once on Day 33, 35 days after initial administration): 100.0%
- Percent Inhibition of Flea Egg Hatching (C. felis; oral 25 mg/kg once on Day 0 and once on Day 33, 42 days after initial administration): 95.9%
- Percent Inhibition of Flea Egg Hatching (C. felis; oral 25 mg/kg once on Day 0 and once on Day 33, 49 days after initial administration): 11.3%
- Percent Inhibition of Flea Egg Hatching (C. felis; oral 25 mg/kg once on Day 0 and once on Day 33, 55 days after initial administration): 12.6%
- Percent Inhibition of Flea Egg Hatching (C. felis; oral 25 mg/kg once on Day 0 and once on Day 33, 63 days after initial administration): 14.0%
- Percent Inhibition of Flea Egg Hatching (C. felis; oral 50 mg/kg once on Day 0 and once on Day 33, 1 day after initial administration): 98.9%
- Percent Inhibition of Flea Egg Hatching (C. felis; oral 50 mg/kg once on Day 0 and once on Day 33, 2 days after initial administration): 100.0%
- Percent Inhibition of Flea Egg Hatching (C. felis; oral 50 mg/kg once on Day 0 and once on Day 33, 4 days after initial administration): 100.0%
- Percent Inhibition of Flea Egg Hatching (C. felis; oral 50 mg/kg once on Day 0 and once on Day 33, 7 days after initial administration): 97.5%
- Percent Inhibition of Flea Egg Hatching (C. felis; oral 50 mg/kg once on Day 0 and once on Day 33, 14 days after initial administration): 97.9%
- Percent Inhibition of Flea Egg Hatching (C. felis; oral 50 mg/kg once on Day 0 and once on Day 33, 21 days after initial administration): 73.0%
- Percent Inhibition of Flea Egg Hatching (C. felis; oral 50 mg/kg once on Day 0 and once on Day 33, 28 days after initial administration): 50.8%
- Percent Inhibition of Flea Egg Hatching (C. felis; oral 50 mg/kg once on Day 0 and once on Day 33, 35 days after initial administration): 100.0%
- Percent Inhibition of Flea Egg Hatching (C. felis; oral 50 mg/kg once on Day 0 and once on Day 33, 42 days after initial administration): 100.0%
- Percent Inhibition of Flea Egg Hatching (C. felis; oral 50 mg/kg once on Day 0 and once on Day 33, 49 days after initial administration): 51.5%
- Percent Inhibition of Flea Egg Hatching (C. felis; oral 50 mg/kg once on Day 0 and once on Day 33, 55 days after initial administration): 31.9%
- Percent Inhibition of Flea Egg Hatching (C. felis; oral 50 mg/kg once on Day 0 and once on Day 33, 63 days after initial administration): 16.1%
- Percent Inhibition of Flea Egg Hatching (adult cat fleas C. felis; pooled blood of dogs given initial bolus 25 mg/kg then daily diet 0.01% (S)-methoprene, week 1): 6%
- Percent Inhibition of Flea Egg Hatching (adult cat fleas C. felis; pooled blood of dogs given initial bolus 25 mg/kg then daily diet 0.01% (S)-methoprene, week 3): 38%
- Percent Inhibition of Flea Egg Hatching (adult cat fleas C. felis; pooled blood of dogs given initial bolus 25 mg/kg then daily diet 0.01% (S)-methoprene, week 5): 24%
- Percent Inhibition of Flea Egg Hatching (adult cat fleas C. felis; pooled blood of dogs given initial bolus 25 mg/kg then daily diet 0.01% (S)-methoprene, week 6): 19%
- Percent Inhibition of Flea Egg Hatching (adult cat fleas C. felis; pooled blood of dogs given initial bolus 50 mg/kg then daily diet 0.02% (S)-methoprene, week 1): 33%
- Percent Inhibition of Flea Egg Hatching (adult cat fleas C. felis; pooled blood of dogs given initial bolus 50 mg/kg then daily diet 0.02% (S)-methoprene, week 3): 48%
- Percent Inhibition of Flea Egg Hatching (adult cat fleas C. felis; pooled blood of dogs given initial bolus 50 mg/kg then daily diet 0.02% (S)-methoprene, week 5): 38%
- Percent Inhibition of Flea Egg Hatching (adult cat fleas C. felis; pooled blood of dogs given initial bolus 50 mg/kg then daily diet 0.02% (S)-methoprene, week 6): 22%
